{"source": "patent US5676931A", "about": "“Aerosol drug formulations for use with non CFC propellants” (Abbott Laboratories, priority 1996, dated 1997)", "assay": "Biodistribution of SLS MDI formulation: drug concentrations in lung and blood (Table 5)", "format": "in vivo, male Sprague-Dawley rats", "details": "rats", "experimental": "A SLS (sodium lauryl sulfate) MDI formulation was tested in the following biodistribution study. One group of 13 male Sprague-Dawley rats, weighing 400 to 500 grams was used. This group of animals was dosed with a sodium lauryl sulfate-based R(+)-N-[3-[5-(4-fluorophenoxy)-2-furanyl]-1-methyl-2-propynyl]-N-hydroxyurea MDI formulation. Blood samples were collected at 0.083, 0.25, 0.5, 1, 2, 4 and 6 hours after dosing. One animal in each group was sacrificed at 0.25, 0.5, 1, 2, 4 and 6 hours after dosing for the determination of drug concentrations in the lung.", "note": "Like-named read-outs stand apart in the source and are kept apart here.", "data": [{"compound": "C[C@H](C#Cc1ccc(Oc2ccc(F)cc2)o1)N(O)C(N)=O", "note": "[R(+)-N-[3-[5-(4-fluorophenoxy)-2-furanyl]-1-methyl-2-propynyl]-N-hydroxyurea]", "values": [{"measurement": "reproducibility of delivery", "setting": "MDI formulations in HFA-134a", "value": "reproducibly delivered"}, {"measurement": "fraction of theoretically delivered drug (lung)", "setting": "SLS MDI, lung, time 0 hr, footnote c", "value": 26.7, "unit": "%"}, {"measurement": "drug concentration recovered from the lung following delivery", "setting": "SLS-based MDI", "value": "about 67 μg/g"}, {"measurement": "concentration at 0.083 h", "setting": "rat, blood, inhaled or intranasal, SLS MDI 10 mg/mL drug, 0.3% SLS in HFA134a, 0.083 hr (n = 12)", "value": "110 ± 80", "unit": "ng/mL"}, {"measurement": "concentration at 0.25 h", "setting": "rat, blood, inhaled or intranasal, SLS MDI 10 mg/mL drug, 0.3% SLS in HFA134a, 0.25 hr (n = 12), read-out: Concentrations of Drug, Blood", "value": "140 ± 70", "unit": "ng/mL"}, {"measurement": "concentration at 0.5 h", "setting": "rat, blood, inhaled or intranasal, SLS MDI 10 mg/mL drug, 0.3% SLS in HFA134a, 0.5 hr (n = 9), read-out: Concentrations of Drug, Blood", "value": "180 ± 80", "unit": "ng/mL"}, {"measurement": "concentration at 1 h", "setting": "rat, blood, inhaled or intranasal, SLS MDI 10 mg/mL drug, 0.3% SLS in HFA134a, 1.0 hr (n = 8), read-out: Concentrations of Drug, Blood", "value": "180 ± 60", "unit": "ng/mL"}, {"measurement": "concentration at 2 h", "setting": "rat, blood, inhaled or intranasal, SLS MDI 10 mg/mL drug, 0.3% SLS in HFA134a, 2.0 hr (n = 6), read-out: Concentrations of Drug, Blood", "value": "150 ± 60", "unit": "ng/mL"}, {"measurement": "concentration at 4 h", "setting": "rat, blood, inhaled or intranasal, SLS MDI 10 mg/mL drug, 0.3% SLS in HFA134a, 4.0 hr (n = 4), read-out: Concentrations of Drug, Blood", "value": "200 ± 40", "unit": "ng/mL"}, {"measurement": "concentration at 6 h", "setting": "rat, blood, inhaled or intranasal, SLS MDI 10 mg/mL drug, 0.3% SLS in HFA134a, 6.0 hr (n = 2), read-out: Concentrations of Drug, Blood", "value": "280 ± 270", "unit": "ng/mL"}, {"measurement": "concentration at 0.25 h", "setting": "rat, lung, inhaled or intranasal, SLS MDI 10 mg/mL drug, 0.3% SLS in HFA134a, 0.25 hr, read-out: Concentrations of Drug, Lung", "value": "14500 ± 6330", "unit": "ng/g"}, {"measurement": "concentration at 0.5 h", "setting": "rat, lung, inhaled or intranasal, SLS MDI 10 mg/mL drug, 0.3% SLS in HFA134a, 0.5 hr, read-out: Concentrations of Drug, Lung", "value": "12100 ± 4720", "unit": "ng/g"}, {"measurement": "concentration at 1 h", "setting": "rat, lung, inhaled or intranasal, SLS MDI 10 mg/mL drug, 0.3% SLS in HFA134a, 1.0 hr, read-out: Concentrations of Drug, Lung", "value": "13100 ± 15700", "unit": "ng/g"}, {"measurement": "concentration at 2 h", "setting": "rat, lung, inhaled or intranasal, SLS MDI 10 mg/mL drug, 0.3% SLS in HFA134a, 2.0 hr, read-out: Concentrations of Drug, Lung", "value": "16600 ± 13000", "unit": "ng/g"}, {"measurement": "concentration at 4 h", "setting": "rat, lung, inhaled or intranasal, SLS MDI 10 mg/mL drug, 0.3% SLS in HFA134a, 4.0 hr, read-out: Concentrations of Drug, Lung", "value": "8540 ± 3100", "unit": "ng/g"}, {"measurement": "concentration at 6 h", "setting": "rat, lung, inhaled or intranasal, SLS MDI 10 mg/mL drug, 0.3% SLS in HFA134a, 6.0 hr, read-out: Concentrations of Drug, Lung", "value": "9850 ± 2910", "unit": "ng/g"}, {"measurement": "Concentrations of Drug, Lung", "setting": "SLS MDI 10 mg/mL drug, 0.3% SLS in HFA134a, 0 hr", "value": 66.74, "unit": "µg/g"}]}]}
